Data taken from US12589093B2, “Plasma kallikrein inhibitors and methods of use thereof in ocular disorders” (BIOCRYST PHARMACEUTICALS, INC., priority 2019, dated 2026).

How the values were obtained:
[1] = Ocular PK (tissue drug levels) after SCS injection; format: in vivo, Dutch belted rabbits
Procedure: (§1) Dutch belted rabbits were used in the study.
(§2) 100 μL of the suspension was administered bilaterally to the suprachoroidal space of the eye, at a dose of 0.5 mg/eye. Two rabbits (4 eyes) were treated per time point, except at day 28, when 3 rabbits were treated. Plasma was collected at 3 hours, 1 day, 3 days, 7 days, 10 days, 14 days, 21 days, 28 days, 56 days, and 84 days post-dose. Aqueous humor, vitreous humor, peripheral retina, peripheral sclera/choroid/RPE, central retina, and central sclera/choroid/RPE punch punch tissues were collected at 1 day, 7 days, 14 days, 28 days, 56 days and 84 days post-dose. Ocular examinations and intraocular pressure (IOP) were also assessed, anterior and posterior segments, at 1 day, 7 days, 14 days, 28 days, 56 days, and 84 days post-dose. Redness, chemosis, discharge, opacity, aqueous flare, cellular flare, vitreous flare, retinal vasculature, retinal and choroidal pathology were assessed at those time points.

[2] = pKa by UV-metric method; format: physicochemical; settings: read-out: pKa Values (second value)
[3] = Systemic (plasma) PK after SCS injection; format: in vivo, Dutch belted rabbits; settings: SCS 0.5 mg/eye, FIG. 5
Procedure: as §1, §2

[4] = Partition coefficient (octanol-phosphate buffer); format: physicochemical; settings: pH 7.4
[5] = Aqueous solubility (deionized water); format: physicochemical; settings: room temperature
[6] = tested on: Dutch belted rabbits; experiment: Ocular tolerability after suprachoroidal (SCS) injection; format: in vivo
Procedure: as §1, §2

[7] = target: T1, human plasma kallikrein (Homo sapiens, UniProt P03952); experiment: Plasma kallikrein activity, chromogenic substrate S2302; format: biochemical
T1 construct: purchased Enzyme Research Laboratories, South Bend, IN, USA
Procedure: The effect of compounds of the disclosure on human plasma kallikrein activity is determined by the method described in Zhang et al. (Medicinal Chemistry, 2006, No. 6, p 547). Briefly, plasma kallikrein activity is determined using a chromogenic substrate (S2302). In these experiments, 2 nM plasma kallikrein (Enzyme Research Laboratories, South Bend, IN, USA) is incubated with 80 μM S2302 (H-D-Pro-Phe-Arg-p-nitroaniline) in the absence or presence of increasing concentrations of compounds of the disclosure in a final volume of 200 μL Tris-HCI buffer (200 mM NaCl; 2.5 mM CaCl2; 50 mM Tris-HCl, pH 7.8). Assay reactions were initiated by adding enzyme into pre-mixed solution of inhibitors and substrate (enzyme initiated reaction) After incubation at 30° C., the activity of plasma kallikrein is measured as a change in absorbance at OD 405 nm (for example using a BioTek PowerWave X340 Microplate Reader, Winooski, VT, USA or equivalent device). Data are analyzed using appropriate software (for example, Four Parameter Logistic Curve, SigmaPlot software, Systat Software, Inc., San Jose, CA, USA or equivalent).

T1 sequence (P03952 391-638 limits assumed): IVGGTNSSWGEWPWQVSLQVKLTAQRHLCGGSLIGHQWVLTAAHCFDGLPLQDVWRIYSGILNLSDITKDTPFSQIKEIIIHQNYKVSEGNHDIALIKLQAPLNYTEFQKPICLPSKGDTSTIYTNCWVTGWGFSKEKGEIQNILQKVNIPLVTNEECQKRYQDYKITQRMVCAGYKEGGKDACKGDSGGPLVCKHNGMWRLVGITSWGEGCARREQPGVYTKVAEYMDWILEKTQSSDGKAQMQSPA
T1 sequence (P03952 20-390 partner limits assumed): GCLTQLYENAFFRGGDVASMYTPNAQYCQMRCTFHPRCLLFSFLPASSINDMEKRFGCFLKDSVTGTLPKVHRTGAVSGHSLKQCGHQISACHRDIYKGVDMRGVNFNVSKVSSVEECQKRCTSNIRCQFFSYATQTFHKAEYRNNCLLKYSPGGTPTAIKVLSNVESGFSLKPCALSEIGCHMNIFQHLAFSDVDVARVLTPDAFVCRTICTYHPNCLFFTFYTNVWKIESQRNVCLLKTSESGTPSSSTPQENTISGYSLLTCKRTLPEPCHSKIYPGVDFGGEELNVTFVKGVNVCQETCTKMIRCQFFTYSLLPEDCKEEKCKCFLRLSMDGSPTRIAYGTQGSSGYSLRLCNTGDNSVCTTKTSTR

For `C=Cc1cc(C(=O)Nc2ccc(C(=N)N)cc2)c(-c2ccc(C(=O)NCC3CC3)nc2C(=O)O)cc1OC.Cl` [BCX4161, avoralstat], the “duration of highly favorable PK profile” value ([1]; 0.5% suspension, single SCS injection) was “at least 3 months”, the “drug levels in central and peripheral RPE/choroid/sclera” value ([1]; SCS 0.5 mg/eye, FIG. 1) was “High drug levels” and the “drug levels in central and peripheral retina” value ([1]; SCS 0.5 mg/eye, FIG. 2) was “High levels”. The “drug levels in the aqueous humor” value ([1]; SCS 0.5 mg/eye, FIG. 4C) was “low levels”, the “drug levels in the vitreous humor” value ([1]; SCS 0.5 mg/eye, FIGS. 4A and 4B) was “moderate to low levels” and the “time high drug levels present in central and peripheral RPE/choroid/sclera” value ([1]; after SCS injection 0.5 mg/eye) was ≥ 84 days. The “time high drug levels present in central and peripheral retina” value ([1]; after SCS injection 0.5 mg/eye) was ≥ 84 days, the pKa [2] was 11.4 and the systemic exposure [3] was “minimal to no systemic exposure”. The “Partition Coefficient (octanol-phosphate buffer), log D7.4” value [4] was “log D7.4 = 1.9”, the solubility [5] was 20 to 40 µg/mL and the tolerability ([6]; 0.5% suspension, single SCS injection, 0.5 mg/eye) was “well tolerated”. For the same compound, the ocular exam score ([6]; all observations, SCS 0.5 mg/eye) was 0, the “conjunctival redness and chemosis” value ([6]; day 1 post-dose, SCS 0.5 mg/eye) was “Mild” and the adverse events ([6]; days 7, 14, 28, 56, or 84 post-dose, SCS 0.5 mg/eye) was “No adverse events”. For the same compound, the “inhibition of human plasma kallikrein activity (in words)” value [7] was “potent and highly specific inhibitor”.
